From patent US6753150B2, “Method for determining whether a compound is capable of inhibiting the interaction of a peptide with rage” (The Trustees of Columbia University in the City of New York, priority 1998, dated 2004)
Each block holds one molecule with its values, some of them ahead of it.

Columns and labels:
[1] = system: Human umbilical vein endothelial cells (HUVEC); experiment: Molt-4 binding assay on stimulated endothelial cells (cell surface VCAM-1 functional activity); format: cell-based; settings: for binding of Molt-4 cells to Ecs: Example 2
Method: FIG. 4. Cellular activation studies: endothelial cells. HUVEC were incubated in the presence of the indicated mediators for 6 hrs. Where indicated, certain cells were preincubated with anti-RAGE/preimmune IgG for one hour. Cells were washed and incubated with ^51Cr-Molt-4 cells (bear VLA-4) for 1 hr. Bound radioactivity was eluted in the presence of SDS (1%) and counted in a gamma counter. Results are reported compared with Molt-4 cell binding to cells exposed to native ovalbumin (defined as “1”).
Molt-4 binding assays. Molt-4 binding assays were performed according to the general method of Marui et al (32). Human umbilical vein endothelial cells were stimulated with the indicated compound in the presence or absence of competitors for 6 hrs at 37° C. Molt-4 cells, which express VLA-4, ligand for VCAM-1, (ATCC) were grown in RPMI 1640 containing fetal bovine serum (10%). Radio labelling was accomplished by incubating Molt-4 cells (2×10^7 cells/ml) for 16 hrs at 37° C. in the above medium containing ^51-Cr (0.2 mCi/ml). Before the binding assay, unincorporated radioactivity was removed by washing cells with Hank's balanced salt solution, and then resuspending them in RPMI containing fetal bovine serum (10%) at 4×10^6 cells/ml. Molt-4 cells were incubated with endothelial cells for one hr at 37° C., and nonadherent cells were removed by washing twice with Medium 199 containing fetal bovine serum (1%); adherent cells were solubilized in SDS (1%), and radioactivity counted in a gamma counter.
To test if incubation of CML-ovalbumin or pentosidine-ovalbumin activated EC, specific AGEs were rendered free of endotoxin (Detoxigel columns (PIERCE®)) and tested for absence of endotoxin by limulus amebocyte assay (SIGMA®).

[2] = system: human peripheral blood-derived mononuclear phagocytes; experiment: Monocyte chemotaxis assay in modified chemotaxis chambers; format: cell-based; settings: mediator in lower wells, three hrs
Method: FIG. 5. Cellular activation studies: mononuclear phagocytes. Human monocytes (5×10^4) were placed in the upper wells of modified chemotaxis chambers with the indicated mediators in the lower wells for three hrs. Membranes were then stained with Giemsa and cells that migrated through the membrane toward the chemotactic stimulus counted per hpf.
Chenotaxis assays. Chemotaxis assays, performed in 48-well microchemotaxis chambers (Neuro-Probe) containing polycarbonate membranes were performed as previously described (15). In these studies, human peripheral blood-derived mononuclear phagocytes, which bear cell surface RAGE, were employed.
Mononuclear phagocytes. To determine if CML-ovalbumin mediated increased human peripheral blood-derived monocyte chemotaxis, experiments were performed in modified chemotaxis chambers as described above.

[3] = system: NF-κB; experiment: Electrophoretic mobility shift assay for NF-κB in endothelial cells; format: cell-based, human; settings: for nuclear translocation / activation of NF-κB in HUVEC: 6 hrs, AGEs at 50 μg/ml; for activation of NF-κB in Ecs: Example 2
Method: FIG. 6. Electrophoretic mobility shift assay. Human umbilical vein endothelial cells (HUVEC) were incubated with mediators for 6 hrs; nuclear extracts were prepared and electrophoretic mobility shift assays performed with ^32P-labelled probe for NF-κB. Lanes contain mediators as above (all AGEs were added at 50 μg/ml). Lanes contain: lane 1, CML-ovalbumin; lane 2, native ovalbumin; lane 3, pentosidine ovalbumin; lane 4, nonimmune IgG and CML ovalbumin; lane 5, anti-RAGE IgG: 7 μg/ml; lane 6; anti-RAGE IgG: 70 μg/ml; lane 7: CML-ovalbumin/100-fold excess unlabelled NF-κB. Supershift assays (lane 8: anti-p50 IgG; lane 9:anti-p65 IgG; lane 10:both anti-p50 IgG and anti-p65 IgG; lane 11: preimmune IgG), all + CML-ovalbumin. Lane 12:CML-ovalbumin: vector alone/13:tail-deleted RAGE.
Electrophoretic mobility shift assays (EMSA). Nuclear extracts were prepared from HUVECs by the method of Schreiber (33). Protein concentration was determined using the Bradford reagent (BIO-RAD®). Double-stranded oligonucleotides representing a portion of the human VCAM-1 promoter containing an NF-κB site were synthesized (Life Technologies). Oligonucleotides were used as probe as follows: NF-κB: 5′[…]3′ (SEQ ID No. 1). Probes were 5′-end labelled with g-[^32P] ATP and polynucleotide kinase. Each reaction contained 10 fmol of probe and 2-5 microliter (1.5 μg) of nuclear extract. Binding reactions were performed in buffer as previously described (19). Complexes were resolved on nondenaturing polyacrylamide gels (6%) in tris (50 mM), borate (45 mM), and EDTA (0.5 mM), ([…]; final pH 7.5). Samples were subjected to electrophoresis for 2 hrs at 10 V/cm. For supershift assays, complexes were preincubated with anti-p65 IgG, anti-p50 IgG or both together, or nonimmune IgG (7.5 μg/ml; 2 hrs 37° C.) in a total reaction volume of 20 μl.
We tested the ability of CML-ovalbumin to ligate RAGE and activate cell signalling pathways.

[4] = biological target: T1, sRAGE (Homo sapiens, UniProt Q15109); experiment: Radioligand competition: 125I-sRAGE (100 nM) binding to immobilized CML-BSA with competitors; settings: competitor in excess
T1 construct: full length soluble RAGE (100 nM; specific activity 7,000-8,000 cpm/ng)
T1 sequence (Q15109 23-342 limits assumed): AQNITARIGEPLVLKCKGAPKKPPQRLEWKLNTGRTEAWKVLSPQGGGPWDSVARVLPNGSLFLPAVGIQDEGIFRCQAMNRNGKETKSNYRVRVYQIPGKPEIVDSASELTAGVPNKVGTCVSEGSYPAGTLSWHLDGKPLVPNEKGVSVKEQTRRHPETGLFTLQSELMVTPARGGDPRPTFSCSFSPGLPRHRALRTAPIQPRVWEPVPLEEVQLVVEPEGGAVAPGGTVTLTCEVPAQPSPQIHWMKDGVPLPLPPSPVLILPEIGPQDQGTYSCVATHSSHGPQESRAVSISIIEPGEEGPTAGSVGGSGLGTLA
Method: Radioligand binding studies: competition experiments. CML-BSA was immobilized to wells; binding was performed with ^125-I sRAGE (100 nM) with the indicated competitors. […] Percent maximal binding is reported compared to binding to immobilized CML-BSA without competitor (100%).
Radioligand binding studies: CML-adducts interact with the V-type Ig domain of RAGE. CML-BSA was immobilized to wells; binding was performed with ^125-I sRAGE (100 nM) in the presence or absence of excess unlabelled (100-fold) V-type Ig domain, C1 Ig domain or C2 Ig domain. Percent maximal binding is reported compared to binding to immobilized CML-BSA without competitor (100%).
Radioligand binding assays. […] All materials were devoid of endotoxin using the Detoxi-gel system (PIERCE®) and tested for negativity in the limulus amebocyte assay (SIGMA®). Gas chromatography-mass spectroscopy and HPLC analyses were performed and verified the identity of the prepared AGES. Specific AGE or control protein (5 μg) was loaded onto the wells of a NUNC MAXISORP® dish in sodium bicarbonate/sodium carbonate buffer (pH 9.8) overnight at 4° C. […] The material retrieved was then counted in a gamma counter (LKB). […]
Radioligand binding studies. […] Radioligand binding assays were performed as described and equilibrium binding data was analyzed according to the equation of Klotz and Hunston.

[5] = biological target: RAGE (Homo sapiens, UniProt Q15109); experiment: Binding of CML-modified proteins to immobilized RAGE (Example 2); settings: for Kd: dose-dependent and saturable
RAGE, sequence (Q15109 23-404): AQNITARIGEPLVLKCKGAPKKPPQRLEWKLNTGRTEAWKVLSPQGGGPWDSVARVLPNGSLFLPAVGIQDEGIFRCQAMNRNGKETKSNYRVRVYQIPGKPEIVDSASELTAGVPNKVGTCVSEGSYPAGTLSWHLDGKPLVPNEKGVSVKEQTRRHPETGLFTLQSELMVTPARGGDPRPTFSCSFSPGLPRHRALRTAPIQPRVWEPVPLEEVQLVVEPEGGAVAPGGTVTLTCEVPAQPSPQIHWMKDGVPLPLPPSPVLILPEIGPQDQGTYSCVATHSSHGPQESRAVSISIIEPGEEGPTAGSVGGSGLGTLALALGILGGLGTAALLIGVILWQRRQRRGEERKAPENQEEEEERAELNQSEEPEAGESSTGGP
From the text: (§1) Advanced glycation endproducts (AGEs) are heterogeneous compounds that form in hyperglycemia, highly-oxidized environments and renal failure. AGEs accumulate in the plasma and tissues of patients with diabetes; their presence has been linked to the development of medical complications. Interaction of AGEs with Receptor for AGE ([…]) activates cells such as endothelial cells (Ecs) and monocytes (Mps) in a manner favoring the development of vascular/inflammatory cell complications. AGEs consist of structures such as carboxymethyl-lysine and pentosidine (both free and protein-bound forms). To begin to delineate which AGE forms interact with RAGE, we prepared free CML and pentosidine, as well as CML- and pentosidine bovine serum albumin (BSA) and ovalbumin (OVA).

[6] = biological target: T1, sRAGE; experiment: Radioligand binding of 125I-sRAGE to immobilized AGE-modified proteins (dose response); settings: for specific binding to sRAGE/RAGE: immobilized AGE-protein, 125I-sRAGE
Method: Radioligand binding studies: dose response experiments. CML- or pentosidine BSA (5 μg) was immobilized to plastic wells and radioligand binding assays performed with increasing concentrations of purified ^125-I sRAGE +/− excess unlabelled sRAGE (50-fold molar excess). Bound tracer was eluted with buffer containing NP40 (1%) and NaCl (0.15M) and the data subjected to analysis as described in the Experimental Details section.
Radioligand binding assays. […] All materials were devoid of endotoxin using the Detoxi-gel system (PIERCE®) and tested for negativity in the limulus amebocyte assay (SIGMA®). […] Specific AGE or control protein (5 μg) was loaded onto the wells of a NUNC MAXISORP® dish in sodium bicarbonate/sodium carbonate buffer (pH 9.8) overnight at 4° C. The following morning, wells were aspirated and blocked with phosphate buffered saline (with calcium/magnesium) containing bovine serum albumin (1%) for two hrs at 37° C. Wells were then washed once with phosphate buffered saline (without calcium/magnesium) containing Tween 20 (0.05%); 0.150 ml/well. A radioligand binding assay was then performed in phosphate buffered saline containing 0.2% bovine serum albumin for 2 hrs at 37° C. utilizing radiolabelled (^125I; using Iodogen (Pierce)) full length soluble RAGE (100 nM; specific activity 7,000-8,000 cpm/ng) in the presence or absence of unlabelled soluble RAGE (50×molar excess) or the indicated molar excess of competitor. Wells were then eluted after washing as above with buffer containing NP-40 (1%) and NaCl (0.15M). The material retrieved was then counted in a gamma counter (LKB). In certain experiments, antibodies or excess soluble RAGE were employed as indicated to test their ability to compete in the indicated assays.
Radioligand binding studies. […] Radioligand binding assays were performed in which CML-BSA, pentosidine-BSA or methylglyoxal-human serum albumin was adsorbed to plastic wells. Radioligand binding assays were performed as described and equilibrium binding data was analyzed according to the equation of Klotz and Hunston.

[7] = system: VCAM-1; experiment: Infusion into normal mice, Northern analysis of VCAM-1 mRNA in lung; format: in vivo; settings: 100 μg infused into CD1 mice, six hrs, Northern blot
Method: FIG. 7. In vivo studies: infusion of CML-BSA into mice modulates […] expression. CML-BSA (lane 2) or native BSA (lane 1) (both 100 μg) was infused into normal CD1 mice. LPS (100 μg) was infused as positive control (lane 3). Six hrs later, mice were humanely sacrificed and lungs rapidly removed for preparation of RNA. Northern analysis was performed as described above for VCAM-1; membranes were then stripped and reprobed with ^32-P-labelled cDNA for G3PDH.
Northern blot analysis. Northern blot analysis for VCAM-1 and G3PDH were performed as previously described (19).
Infusion of CML-BSA into normal mice increases mRNA for Vascular Cell Adhesion Molecule-1.

[8] = system: NF-κB; experiment: NF-κB activation in monocytes (MPs) (Example 2); format: cell-based
From the text: as §1

Molecule: native ovalbumin: unmodified ovalbumin control protein
effect on binding of 51Cr-Molt 4 cells to HUVEC ([1]; HUVEC exposed 6 hrs): without effect | monocyte chemotaxis [2]: without effect | nuclear translocation / activation of NF-κB in HUVEC [3]: not

Molecule: N[C@@H](CCCCNCC(=O)O)C(=O)O [free CML, N^e-(Carboxymethyl)lysine]
specific binding to sRAGE/RAGE [6]: not | effect on binding of 125I-sRAGE to immobilized CML-BSA [4]: no effect | effect on binding of CML-BSA and CML-OVA to immobilized RAGE [5]: not

Molecule: pentosidine-ovalbumin: pentosidine-modified ovalbumin
effect on binding of 51Cr-Molt 4 cells to HUVEC ([1]; HUVEC exposed 6 hrs): without effect | nuclear translocation / activation of NF-κB in HUVEC [3]: not

Molecule: CML-BSA: carboxymethyl-lysine-modified bovine serum albumin, a synthetic AGE
Kd ([6]; read-out: KD of binding to sRAGE, AGE-protein (5 μg) immobilized on wells, increasing 125I-sRAGE +/- 50-fold excess unlabelled sRAGE): ~76 nM | mRNA for VCAM-1 in lung tissue [7]: increased mRNA for VCAM-1 | Kd [5]: 60 nM | activation of NF-κB in MPs [8]: activated NF-κB

Molecule: CML-ovalbumin: carboxymethyl-lysine-modified ovalbumin, a synthetic AGE
binding of Molt-4 cells to Ecs [1]: increased binding of Molt-4 cells | increase in binding of 51Cr-Molt 4 cells to HUVEC ([1]; HUVEC exposed 6 hrs, relative to native ovalbumin (defined as 1)): 2.3 fold | monocyte chemotaxis [2]: stimulated monocyte chemotaxis in a dose-dependent manner | nuclear translocation / activation of NF-κB in HUVEC [3]: increased nuclear translocation of NF-κB | activation of NF-κB in Ecs [3]: activated NF-κB | activation of NF-κB in MPs [8]: activated NF-κB

Further lines, with some results ahead:

effect on binding of 125I-sRAGE to immobilized CML-BSA [4]: no effect | effect on binding of CML-BSA and CML-OVA to immobilized RAGE [5]: not
Molecule: N[C@@H](CCCCn1cccc2nc(NCCC[C@H](N)C(=O)O)nc1-2)C(=O)O [free pentosidine, Pentosidine]

effect on binding of CML-BSA and CML-OVA to immobilized RAGE [5]: not
Molecule: unmodified BSA: unmodified bovine serum albumin control protein
mRNA for VCAM-1 in lung tissue [7]: without effect

specific binding to sRAGE/RAGE [6]: no specific binding
Molecule: pentosidine-BSA: pentosidine-modified bovine serum albumin
binding of Molt-4 cells to Ecs [1]: without effect | monocyte chemotaxis [2]: without effect | activation of NF-κB in Ecs [3]: without effect | activation of NF-κB in MPs [8]: without effect

Kd [5]: 60 nM
B1: CML-ovalbumin: carboxymethyl-lysine-modified ovalbumin, a synthetic AGE (protein, UniProt P01012 2-386, looked up)
Ovalbumin: GSIGAASMEFCFDVFKELKVHHANENIFYCPIAIMSALAMVYLGAKDSTRTQINKVVRFDKLPGFGDSIEAQCGTSVNVHSSLRDILNQITKPNDVYSFSLASRLYAEERYPILPEYLQCVKELYRGGLEPINFQTAADQARELINSWVESQTNGIIRNVLQPSSVDSQTAMVLVNAIVFKGLWEKAFKDEDTQAMPFRVTEQESKPVQMMYQIGLFRVASMASEKMKILELPFASGTMSMLVLLPDEVSGLEQLESIINFEKLTEWTSSNVMEERKIKVYLPRMKMEEKYNLTSVLMAMGITDVFSSSANLSGISSAESLKISQAVHAAHAEINEAGREVVGSAEAGVDAASVSEEFRADHPFLFCIKHIATNAVLFFGRCVSP
modifications: carboxymethyl-lysine modified
notes: carboxymethyl-lysine-modified ovalbumin, a synthetic AGE

effect on binding of CML-BSA and CML-OVA to immobilized RAGE [5]: not
B2: native ovalbumin: unmodified ovalbumin control protein (protein, UniProt P01012 2-386, looked up)
Ovalbumin: GSIGAASMEFCFDVFKELKVHHANENIFYCPIAIMSALAMVYLGAKDSTRTQINKVVRFDKLPGFGDSIEAQCGTSVNVHSSLRDILNQITKPNDVYSFSLASRLYAEERYPILPEYLQCVKELYRGGLEPINFQTAADQARELINSWVESQTNGIIRNVLQPSSVDSQTAMVLVNAIVFKGLWEKAFKDEDTQAMPFRVTEQESKPVQMMYQIGLFRVASMASEKMKILELPFASGTMSMLVLLPDEVSGLEQLESIINFEKLTEWTSSNVMEERKIKVYLPRMKMEEKYNLTSVLMAMGITDVFSSSANLSGISSAESLKISQAVHAAHAEINEAGREVVGSAEAGVDAASVSEEFRADHPFLFCIKHIATNAVLFFGRCVSP
